# Measured values from patent publication US5436369A, “Alicyclic phospholipase A2 inhibitors” (Bristol-Myers Squibb Company, priority 1994, dated 1995).
# Target: T1, PLA2 (Homo sapiens, UniProt P14555)
# T1 construct: The enzyme is isolated from human platelets; from tissue; host or cells: human platelets
# T1 sequence (P14555 21-144): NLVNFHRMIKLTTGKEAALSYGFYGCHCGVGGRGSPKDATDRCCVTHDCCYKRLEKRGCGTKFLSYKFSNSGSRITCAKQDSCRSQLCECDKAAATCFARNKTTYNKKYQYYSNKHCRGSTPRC
# Test: PLA2 Inhibition Assay (14C-oleate labeled E. coli membrane substrate)
# Format: biochemical
# Settings: enzyme isolated from human platelets
# Protocol: The method used is similar to that reported by Franson, et al. [Jesse, R. L. and Franson R. C., Biochim. Biophys. Acta 575:467-470 (1979); Franson, R. C., Patriarca, P., and Elsback, P., J. Lipid Res. 15: 380-388 (1974)]. The enzyme is isolated from human platelets. The substrate used consists of ^14 C-oleate labeled Escherichia coli membranes. E. coli cells are grown in the presence of ^14 C-oleic acid and then autoclaved to prepare the membranes.
# Various concentrations of test compounds are pre-incubated with PLA2 (3.6 μg/mL in a buffer consisting of 25 mM HEPES (pH 7)), 150 mM NaCl, 5.0 mM CaCl2, and 10% DMSO (v/v, test compound solvent) at 37° C. for 7 minutes. The E. coli membrane substrate is then added (0.1 mM phospholipid, 0.005 μCi ^14 C) and the reaction is then incubated at 37° C. for 30 minutes. The reaction is then terminated by the addition of 1.9 mL tetrahydrofuran (THF), and the entire solution is applied to a solid-phase extraction column (aminopropyl resin, Analytichem). The column is rinsed with an additional 1 mL of THF. The free fatty acid product of the reaction is then eluted from the column with 1 mL of 2% acetic acid in THF and collected in a scintillation vial. The amount of free fatty acid product is determined by liquid scintillation counting. The amount of inhibition produced by the test compound is calculated by comparing the counts obtained in the presence of the compound to those obtained in its absence (solvent only). Background counts were determined by performing incubations in the absence of enzyme.
# Percent inhibition is determined by the equation: [formula]
# [1] = Table 1, Structure 11 (Type IA), 100 μM
# [2] = Table 2, Structure 14 (Type IA), 100 μM
Structure (SMILES),inhibition at 100 µM [1],inhibition at 100 µM [2],other results
C/C(=C\CC(/C=C\C(=O)O)c1cccc(C(=O)O)c1)c1ccc2c(c1)C(C)(C)CCC2(C)C (racemic) [Structure 32c],–,–,"% Inhibition of PLA2 at 100 μm (Table 5, Structure 32 (Type IC), 100 μm as printed): 67%"
"O=C(O)/C=C\C(=C\c1ccccc1)c1cccc(C(=O)O)c1 [Structure 11a, (2Z),(4Z)-4-(3-Carboxyphenyl)-5-phenyl-2,4-pentadienoic acid]",6%,–,–
"CC1(C)CCC(C)(C)c2cc(/C=C(/C=C\C(=O)O)c3cccc(C(=O)O)c3)ccc21 [Structure 11b, (2Z),(4Z)-4-(3-Carboxyphenyl)-5-(5,6,7,8-tetrahydro-5,5,8,8-tetramethyl-2-naphthalenyl)-2,4-pentadienoic acid]",44%,–,–
"CC1(C)CCC(C)(C)c2cc3cc(/C=C(/C=C\C(=O)O)c4cccc(C(=O)O)c4)ccc3cc21 [Structure 11c, (2Z),(4Z)-4-(3-Carboxyphenyl)-5-(5,6,7,8-tetrahydro-5,5,8,8-tetramethyl-2-anthracenyl)-2,4-pentadienoic acid]",97%,–,–
"CCCCCCCCCCOc1ccc(/C=C(/C=C\C(=O)O)c2cccc(C(=O)O)c2)cc1 [Structure 11d, (2Z),(4Z)-4-(3-Carboxyphenyl)-5-(4-decyloxyphenyl)-2,4-pentadienoic acid]",100%,–,–
"CCCCCCCCCCOc1ccc(/C=C(/C=C\C(=O)O)c2cccc(C(=O)O)c2)cc1OCCCCCCCCCC [Structure 11e, (2Z),(4Z)-4-(3-Carboxyphenyl)-5-(3,4-bisdecyloxyphenyl)-2,4-pentadienoic a cid]",100%,–,–
"O=C(O)/C=C\C(=C\CCc1ccccc1)c1cccc(C(=O)O)c1 [Structure 11f, (2Z),(4Z)-4-(3-Carboxyphenyl)-7-phenyl-2,4-heptadienoic acid]",15%,–,–
"CC1(C)CCC(C)(C)c2cc(CC/C=C(/C=C\C(=O)O)c3cccc(C(=O)O)c3)ccc21 [Structure 11g, (2Z),(4Z)-4-(3-Carboxyphenyl)-7-(5,6,7,8-tetrahydro-5,5,8,8-tetramethyl-2-naphthalenyl)-2,4-heptadienoic acid]",58%,–,–
"C\C(=C/C=C(/C=C\C(=O)O)c1cccc(C(=O)O)c1)c1ccc2c(c1)C(C)(C)CCC2(C)C [Structure 11h, (2Z),(4Z),(6E)-4-(3-Carboxyphenyl)-7-(5,6,7,8-tetrahydro-5,5,8,8-tetramethyl-2-naphthalenyl)-2,4,6-octatrienoic acid]",97%,–,–
"COc1cc(CC/C=C(/C=C\C(=O)O)c2cccc(C(=O)O)c2)ccc1C12CC3CC(CC(C3)C1)C2 [Structure 11i, (2Z),(4Z)-4-(3-Carboxyphenyl)-7-[4-(1-adamantyl)-3-methoxyphenyl]-2,4-heptadienoic acid]",100%,–,–
"COc1ccc(CC/C=C(/C=C\C(=O)O)c2cccc(C(=O)O)c2)cc1C12CC3CC(CC(C3)C1)C2 [Structure 11j, (2Z),(4Z)-4-(3-Carboxyphenyl)-7-[3-(1-adamantyl)-4-methoxyphenyl]-2,4-heptadienoic acid]",98%,–,–
"CC(=C/C(=O)O)/C(=C/c1ccc2cc3c(cc2c1)C(C)(C)CCC3(C)C)c1cccc(C(=O)O)c1 [Structure 11k, (2Z),(4Z)-3-Methyl-4-(3-carboxyphenyl)-5-(5,6,7,8-tetrahydro-5,5,8,8-tetramethyl-2-anthracenyl)-2,4-pentadienoic acid]",98%,–,–
"CCCCCCCCCCOc1ccc(/C=C(/C=C\C(=O)O)c2cccc(C(F)(F)F)c2)cc1 [Structure 14a, (2Z),(4Z)-4-(3-Trifluoromethylphenyl)-5-(4-decyloxyphenyl)-2,4-pentadienoic acid]",–,100%,–
"CCCCCCCCCCOc1cccc(/C=C(/C=C\C(=O)O)c2cccc(C(F)(F)F)c2)c1 [Structure 14b, (2Z),(4Z)-4-(3-Trifluoromethylphenyl)-5-(3-decyloxyphenyl)-2,4-pentadienoic acid]",–,100%,–
"CCCCCCCCCCOc1ccccc1/C=C(/C=C\C(=O)O)c1cccc(C(F)(F)F)c1 [Structure 14c, (2Z),(4Z)-4-(3-Trifluoromethylphenyl)-5-(2-decyloxyphenyl)-2,4-pentadienoic acid]",–,–,% Inhibition of PLA2 at 100 μM [2]: 92%
CC(C)=CCC/C(C)=C/COc1ccc(/C=C(/C=C\C(=O)O)c2cccc(C(F)(F)F)c2)cc1 [Structure 14d],–,98%,–
"CCCCCCCCCCOc1ccc(/C=C(/C=CC(=O)O)c2cccc(C(F)(F)F)c2)cc1OCCCCCCCCCC [Structure 14e, (2Z),(4Z)-4-(3-Trifluoromethylphenyl)-5-(3,4-bisdecyloxyphenyl)-2,4-pentadienoic acid/(2E),(4Z)-4-(3-Trifluoromethylphenyl)-5-(3,4-bisdecyloxyphenyl)-2,4-pentadienoic acid]",–,99%,–
"CC1(C)CCC(C)(C)c2cc3cc(/C=C(/C=C\C(=O)O)c4cccc(C(F)(F)F)c4)ccc3cc21 [Structure 14f, (2Z), (4Z)-4-(3-trifluoromethylphenyl)-5-(5,6,7,8-tetrahydro-5,5,8,8-tetramethyl-2-anthracenyl)-2,4-pentadienoic acid]",–,71%,–
"CC1(C)CCC(C)(C)c2cc(CC/C=C(/C=C\C(=O)O)c3cccc(C(F)(F)F)c3)ccc21 [Structure 14g, (2Z),(4Z)-4-(3-Trifluoromethylphenyl)-7-(5,6,7,8-tetrahydro-5,5,8,8-tetramethyl-2-naphthalenyl)-2,4-heptadienoic acid]",–,96%,–
"CC1(C)CCC(C)(C)c2cc(CC/C=C(/C=C\C(=O)O)c3ccc(F)cc3)ccc21 [Structure 14h, (2Z),(4Z)-4-(4-Fluorophenyl)-7-(5,6,7,8-tetrahydro-5,5,8,8-tetramethyl-2-naphthalenyl)-2,4-heptadienoic acid]",–,96%,–
"CC1(C)CCC(C)(C)c2cc(CC/C=C(/C=C\C(=O)O)c3cccc(F)c3)ccc21 [Structure 14i, (2Z),(4Z)-4-(3-Fluorophenyl)-7-(5,6,7,8-tetrahydro-5,5,8,8-tetramethyl-2-naphthalenyl)-2,4-heptadienoic acid]",–,96%,–
"CC1(C)CCC(C)(C)c2cc(CC/C=C(/C=C\C(=O)O)c3ccccc3)ccc21 [Structure 14j, (2Z),(4Z)-4-Phenyl-7-(5,6,7,8-tetrahydro-5,5,8,8-tetramethyl-2-naphthalenyl)-2,4-heptadienoic acid]",–,92%,–
"COc1ccc(CC/C=C(/C=C\C(=O)O)c2cccc(C(F)(F)F)c2)cc1C12CC3CC(CC(C3)C1)C2 [Structure 14k, (2Z),(4Z)-4-(3-Trifluoromethylphenyl)-7-[3-(1-adamantyl)-4-methoxyphenyl]-2,4-heptadienoic acid]",–,99%,–
"COc1ccc(CC/C=C(/C=C\C(=O)O)c2ccccc2)cc1C12CC3CC(CC(C3)C1)C2 [Structure 14l, (2Z),(4Z)-4-Phenyl-7-[3-(1-adamantyl)-4-methoxyphenyl]-2,4-heptadienoic acid]",–,99%,–
"COc1cc(CC/C=C(/C=C\C(=O)O)c2cccc(C(F)(F)F)c2)ccc1C12CC3CC(CC(C3)C1)C2 [Structure 14m, (2Z),(4Z)-4-(3-Trifluoromethylphenyl)-7-[4-(1-adamantyl)-3-methoxyphenyl]-2,4-heptadienoic acid]",–,99%,–
"COc1cc(CC/C=C(/C=C\C(=O)O)c2ccccc2)ccc1C12CC3CC(CC(C3)C1)C2 [Structure 14n, (2Z),(4Z)-4-Phenyl-7-[4-(1-adamantyl)-3-methoxyphenyl]-2,4-heptadienoicacid]",–,100%,–
"COc1ccc(CC/C=C(/C=C\C(=O)O)c2cccc(C(F)(F)F)c2)c(C23CC4CC(CC(C4)C2)C3)c1 [Structure 14o, (2Z),(4Z)-4-(3-Trifluoromethylphenyl)-7-[2-(1-adamantyl)-4-methoxyphenyl]-2,4-heptadienoic acid]",–,99%,–
"COc1cc(/C=C(/C=C\C(=O)O)c2cccc(C(F)(F)F)c2)ccc1C12CC3CC(CC(C3)C1)C2 [Structure 14p, (2Z),(4Z)-4-(3-Trifluoromethylphenyl)-5-[-4-(1-adamantyl)-3-methoxyphenyl]-2,4-pentadienoic acid]",–,93%,–
"O=C(O)/C=C\C(=C\CCc1ccc(C23CC4CC(CC(C4)C2)C3)c(O)c1)c1cccc(C(F)(F)F)c1 [Structure 14q, (2Z),(4Z)-4-(3-Trifluoromethylphenyl)-7-[4-(1-adamantyl)-3-hydroxyphenyl]-2,4-heptadienoic acid]",–,100%,–
"CCCCCOc1cc(CC/C=C(/C=C\C(=O)O)c2cccc(C(F)(F)F)c2)ccc1C12CC3CC(CC(C3)C1)C2 [Structure 14r, (2Z),(4Z)-4-(3-Trifluoromethylphenyl)-7-[4-(1-adamantyl)-3-pentyloxyphenyl]-2,4-heptadienoic acid]",–,95%,–
